The values that follow come from publication PMC9961652 (International Journal of Molecular Sciences, 2023).

Broadly, the IC50 is the concentration at which inhibition is half-maximal.

Data set [1] relates to washed human platelets. Description: Wash-out reversibility of inhibition of collagen-induced platelet aggregation. In kind it is cell-based. The method, then:
The reversible inhibition of Rhosin in collagen-induced platelet aggregation was assessed with similar wash-out experiments, and this reversible nature of Rhosin makes it a valuable antiplatelet drug candidate (Supporting Information Figure S4A,B). After confirming the structures of the above six active analogs, similar wash-out experiments were performed to compare the reversible function of the active analogs with Rhosin reversibility.

The test system of data set [2] is washed human platelets. Description: Collagen-induced platelet aggregation, light transmission aggregometry (Born method). In kind it is cell-based. The settings on record: for IC50: collagen 1 µg/mL, dose-response curves, read-out: IC50 (95% CI) of platelet aggregation; for IC50 / activity at 20 µM: washed human platelets; for activity at 20 µM: compound 20 µM, means ± SDs of three experiments, 100% = agonist alone. The method, then: Light transmission aggregometry, i.e., the Born method, was used to determine in vitro antiplatelet aggregation activity using collagen as the agonist for platelet aggregation. Collagen was selected as the agonist, since it is the most thrombogenic component of the subendothelial layer. Collagen also serves as a substrate for platelet adhesion and as an inducer of platelet activation.
All experiments using human blood from healthy volunteers were performed according to the protocols approved by the Institutional Review Board at Cincinnati Children’s Hospital Medical Center, Cincinnati, Ohio. Each volunteer was required to sign an informed consent form approved by the IRB. Procedures for drawing human blood, isolating platelet-rich plasma (PRP), and preparing washed platelet suspensions were the same as those previously reported. […] PRP was obtained by means of the centrifugation of blood at 1400 rpm for 15 min at room temperature. PRP was centrifuged at 4000 rpm for 10 min at room temperature, and the platelet pellet was resuspended in HEPES Tyrode’s solution (pH 7.4) without calcium. Platelets were counted using Hemavet 950FS (Drew Scientific, Oxford, CT, USA), and the count was adjusted to 2.5 × 10^8/mL for aggregation studies.
The in vitro antiplatelet activity of the compounds was assayed on washed human platelets using light transmission aggregometry. Platelet aggregation was performed using a 4-channel Lumi-aggregometer (Chronolog, PA, USA) at 37 °C and stirring speed of 900 rpm. A volume of 250 µL of washed human platelets (2.5 × 10^8/mL) was pre-warmed to 37 °C along with the compounds or DMSO (0.1%) for 2 min before the addition of agonists such as collagen, AA, U46619 (a stable synthetic analog of thromboxane A2), ADP, and thrombin. For ATP secretion, platelets were pre-incubated with a luciferin/luciferase kit (Chrono-lume®) for 30 s at 37 °C before the addition of the agonist. The reactions were allowed to proceed for at least 4 min, and the results of platelet aggregation and ATP secretion were determined using Aggrolink software. Platelet aggregation was expressed as the maximum change in the light transmission, where the 100% value corresponded to treatment with the agonist alone. Compounds were evaluated in triplicate at nine compound concentrations ranging from 50 µM to 1 µM.

In a further data set the test system is RhoA. Set-up: method as in PMID 22726684, PMID 22956131. Conditions: cited from earlier work.
Another data set has as its system RhoA, Rac1 and Cdc42. On the set-up: method as in PMID 22726684, PMID 27681226. The settings on record: cited from earlier work.
Another data set concerns the target T1, RhoA-LARG interaction (Homo sapiens, UniProt P61586).
T1 construct: 100 ng of purified full-length RhoA
Description: In vitro complex-formation assay of RhoA with LARG DH-PH domain. The format is binding. The settings on record: R-G04 25 µM or 50 µM, S-G04 5 µM or 10 µM; 4 °C, 1 h. The method, then: (A) A complex-formation assay tested the inhibitory effects of 20 µM UC-177618 and UC-177619 on RhoA interaction with the LARG DH-PH domain. […] After incubating the compound-RhoA-LARG mixture at 4 °C for 1 h, the beads associated with RhoA were detected with anti-RhoA Western blotting. (B,C) Top view of the predicted structural contacts of UC-177618 and UC-177619 in the binding pocket around the Trp58 residue of RhoA.
(A) A complex-formation assay tested the inhibitory effects of R-G04 and S-G04 on RhoA interaction with the LARG DH-PH domain. MBP-(His)6-tagged LARG (100 ng) was immobilized on Amylose beads. Binding buffer containing full-length RhoA (100 ng) was pre-incubated with different concentrations of R-G04 (25 µM or 50 µM), and S-G04 (5 µM or 10 µM) was added to the beads. After incubating the compound-RhoA-LARG mixture at 4 °C for 1 h, the beads associated with RhoA were detected with anti-RhoA Western blotting. (B) Top view of the predicted structural contacts of R-G04 and S-G04 in the binding pocket around the Trp58 residue of RhoA.
In total, 100 ng of purified MBP (Maltose-binding protein)-(His)6-tagged LARG DH-PH was immobilized on 20 µL of suspended amylose beads (No. E8021S; New England Biolabs Inc., Ipswich, MA, USA) by incubating them in an orbital shaker at 4 °C for 30 min in binding buffer (20 mM Tris·HCl (pH 7.6), 100 mM NaCl, 0.01% Triton X-100, 5mM EDTA, and 5 mM MgCl2). The compounds were added to the binding buffer containing 100 ng of purified full-length RhoA and pre-incubated at 4 °C for 30 min under constant agitation. The Amylose beads bound to LARG were washed thrice with binding buffer to get rid of unbound LARG, and the pre-incubated compound-RhoA mixture was added to the beads. This LARG-compound-RhoA mixture was incubated in the orbital shaker at 4 °C for 1 h. The beads were washed three times, and the amount of RhoA protein co-precipitated with the MBP-fusion-bound beads was detected with anti-RhoA Western blotting.

The nature of data set [3]: Pharmacokinetic profile (unpublished data).
[4] abbreviates: Platelet, read-out: % Platelet Aggregation, Collagen (1 µg/mL).
The mark [5] stands for this setting: Platelet, read-out: % Platelet Aggregation, Collagen (5 µg/mL).

Structures are written as SMILES. Read-outs that look alike come from different tables or passages of the source.

T1 sequence (P61586 whole entry): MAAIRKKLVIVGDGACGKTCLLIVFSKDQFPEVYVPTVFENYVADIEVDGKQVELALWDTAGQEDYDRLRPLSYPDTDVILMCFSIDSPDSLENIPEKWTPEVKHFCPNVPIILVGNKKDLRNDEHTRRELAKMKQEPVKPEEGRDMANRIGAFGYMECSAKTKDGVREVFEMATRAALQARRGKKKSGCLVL

`N[C@H](Cc1c[nH]c2ccccc12)C(=O)N/N=C/c1ccc2nccnc2c1` [R-G04]: the “reversibility of inhibitory effect after wash-out” value in the data set on washed human platelets [1] was “reversible”. Also, in the data set on washed human platelets [2] (Homo sapiens, Platelet), the IC50 was 22.6 µM. The values for the activity at 20 µM in the data set on washed human platelets [2] (setting [4]) and in the data set on washed human platelets [2] (setting [5]) were 70.3 ± 18.9% and 71.4 ± 15%, respectively. Besides, the “affinity of binding to the Trp58 region of the RhoA surface” value in the data set with RhoA was “micromolar affinity”. Besides, in the data set on RhoA, Rac1 and Cdc42, the “specificity of inhibition of Rho GTPase activation” value is “specifically inhibits the activation of RhoA but not that of Rac1 and Cdc42”. The “LARG binding to RhoA” value on RhoA-LARG interaction is on record as “dose-dependently suppressing LARG binding to RhoA”. In addition, the pharmacokinetic profile result in data set [3] was “poor pharmacokinetic profile”.
For the molecule `N[C@@H](Cc1c[nH]c2ccccc12)C(=O)N/N=C/c1ccc2nccnc2c1` [S-G04], the 50% inhibitory concentration (IC50) came out at 7.8 µM with washed human platelets [2] (Homo sapiens, Platelet) and 7.96 µM in the data set on washed human platelets [2]. Moreover, the activity at 20 µM with washed human platelets [2] (setting [4]) was 9.33 ± 4.93%; in the data set on washed human platelets [2] (setting [5]), 20 ± 5%. Also, the “potency of S-G04 relative to R-G04” value with washed human platelets [2] (from IC50, collagen 1 µg/mL) is “three times more potent than R-G04”. Besides, the “LARG binding to RhoA” value on RhoA-LARG interaction was “dose-dependently suppressing LARG binding to RhoA”.
